Data on 36 compounds can be found in patent US20260048047A1, “SMALL-MOLECULE ACTIVATORS OF MYCOBACTERIUM TUBERCULOSIS ADENYLYL CYCLASE” (priority 2022, published 2026).

pEC50: −log10 of the molar value. Where only a bound is given, the exact number is not on record here.

The subject of this test is M. tuberculosis. In words: Extracellular activity against M. tuberculosis in cholesterol media (Alamar Blue reduction assay). The test is classed as cell-based, Mycobacterium tuberculosis. The conditions noted are these: Mycobacterium tuberculosis, 240 h, 7H12-Cholesterol media, 10 days; read-out: Cholesterol broth: alamar blue--EC50. (Resazurin is reduced to fluorescent resorufin, in cell work by metabolically active cells.)
With `Cc1nonc1CC(=O)N1CCC(c2nc(C3CCC(F)(F)C3)no2)CC1` (stereo not drawn) [Compound 109, 1-(4-(3-(3,3-difluorocyclopentyl)-1,2,4-oxadiazol-5-yl)piperidin-1-yl)-2-(4-methyl-1,2,5-oxadiazol-3-yl)ethan-1-one], the negative logarithm of the EC50 (pEC50) (as a rule, the EC50 on a negative log10 scale, so that one unit is a factor of ten) was 5.49. As for `Cc1nonc1CC(=O)N1CCC(c2nc(C3CCC(F)(F)CC3)no2)CC1` [Compound 110, 1-(4-(3-(4,4-difluorocyclohexyl)-1,2,4-oxadiazol-5-yl)piperidin-1-yl)-2-(4-methyl-1,2,5-oxadiazol-3-yl)ethan-1-one], the negative-log EC50 (pEC50) was 6.01. `Cc1nonc1CC(=O)N1CCC(O)(c2nc(C3CCC(F)(F)CC3)no2)CC1` [Compound 111, 1-(4-(3-(4,4-difluorocyclohexyl)-1,2,4-oxadiazol-5-yl)-4-hydroxypiperidin-1-yl)-2-(4-methyl-1,2,5-oxadiazol-3-yl)ethan-1-one]: the pEC50 is less than 5.00. In the case of `Cc1nonc1CC(=O)N1CCC(c2nc(C3CCCC(F)(F)C3)no2)CC1` (stereo not drawn) [Compound 112, 1-(4-(3-(3,3-difluorocyclohexyl)-1,2,4-oxadiazol-5-yl)piperidin-1-yl)-2-(4-methyl-1,2,5-oxadiazol-3-yl)ethan-1-one], the pEC50 is 5.57. Regarding `Cc1nonc1CC(=O)N1CCC(c2nc([C@@H]3CC[C@H](F)C3)no2)CC1` [Compound 113, 1-(4-(3-((1R,3S)-3-fluorocyclopentyl)-1,2,4-oxadiazol-5-yl)piperidin-1-yl)-2-(4-methyl-1,2,5-oxadiazol-3-yl)ethan-1-one], the pEC50 is less than 4.60.

In the case of `Cc1nonc1CC(=O)N1CCC(c2nc([C@@H]3CC[C@@H](F)C3)no2)CC1` [Compound 114, 1-(4-(3-((1R,3R)-3-fluorocyclopentyl)-1,2,4-oxadiazol-5-yl)piperidin-1-yl)-2-(4-methyl-1,2,5-oxadiazol-3-yl)ethan-1-one], the pEC50 was 5.15.

On to `Cc1nonc1CC(=O)N1CCC(c2nc(C3CCC(F)CC3)no2)CC1` (stereo not drawn) [Compound 115, 1-(4-(3-(4-fluorocyclohexyl)-1,2,4-oxadiazol-5-yl)piperidin-1-yl)-2-(4-methyl-1,2,5-oxadiazol-3-yl)ethan-1-one], for which the pEC50 is less than 4.60.

For the compound `Cc1nonc1CC(=O)N1CCC(c2noc(C34CC(F)(C3)C4)n2)CC1` [Compound 116, 1-(4-(5-(3-fluorobicyclo[1.1.1]pentan-1-yl)-1,2,4-oxadiazol-3-yl)piperidin-1-yl)-2-(4-methyl-1,2,5-oxadiazol-3-yl)ethan-1-one], the negative-log EC50 (pEC50) is 5.03. Turning to `Cc1nonc1CC(=O)N1CCC(c2nc(-c3ccc(C(F)(F)F)c(F)c3)no2)CC1` [Compound 117], the pEC50 was 6.56. As for `Cc1nonc1CC(=O)N1CCC(c2nc(-c3ccc(Cl)c(F)c3)no2)CC1` [Compound 118, 1-(4-(3-(4-chloro-3-fluorophenyl)-1,2,4-oxadiazol-5-yl)piperidin-1-yl)-2-(4-methyl-1,2,5-oxadiazol-3-yl)ethan-1-one], the pEC50 is 7.09.

As for `Cc1nonc1CC(=O)N1CCC(c2nc(-c3cc(F)cc(Cl)c3)no2)CC1` [Compound 119, 1-(4-(3-(3-chloro-5-fluorophenyl)-1,2,4-oxadiazol-5-yl)piperidin-1-yl)-2-(4-methyl-1,2,5-oxadiazol-3-yl)ethan-1-one], the pEC50 is 6.33.

Take `Cc1nonc1CC(=O)N1CCC(c2nc(-c3ccc(Cl)cc3F)no2)CC1` [Compound 120, 1-(4-(3-(4-chloro-2-fluorophenyl)-1,2,4-oxadiazol-5-yl)piperidin-1-yl)-2-(4-methyl-1,2,5-oxadiazol-3-yl)ethan-1-one]: the pEC50 is 6.43. For the compound `Cc1nonc1CC(=O)N1CCC(c2nc(-c3ccc(F)cc3Cl)no2)CC1` [Compound 121, 1-(4-(3-(2-chloro-4-fluorophenyl)-1,2,4-oxadiazol-5-yl)piperidin-1-yl)-2-(4-methyl-1,2,5-oxadiazol-3-yl)ethan-1-one], the pEC50 was 6.42. On to `Cc1nonc1CC(=O)N1CCC(c2nc(-c3ccc(F)cc3F)no2)CC1` [Compound 122, 1-(4-(3-(2,4-difluorophenyl)-1,2,4-oxadiazol-5-yl)piperidin-1-yl)-2-(4-methyl-1,2,5-oxadiazol-3-yl)ethan-1-one], for which the pEC50 was 6.41.

`Cc1nonc1CC(=O)N1CCC(c2nc(-c3ccc(F)cc3C(F)(F)F)no2)CC1` [Compound 123]: the pEC50 is 5.83. As for `Cc1nonc1CC(=O)N1CCC(c2nc(-c3ccc(F)c(C(F)(F)F)c3)no2)CC1` [Compound 124], the pEC50 is 6.48.

On to `Cc1nonc1CC(=O)N1CCC(c2nc(-c3ccc(F)c(OC(F)(F)F)c3)no2)CC1` [Compound 125], for which the pEC50 is 6.54. In the case of `Cc1nonc1CC(=O)N1CCC(n2ccc(-c3ccc(F)cc3)n2)CC1` [Compound 127, 1-(4-(3-(4-fluorophenyl)-1H-pyrazol-1-yl)piperidin-1-yl)-2-(4-methyl-1,2,5-oxadiazol-3-yl)ethan-1-one], the pEC50 was 5.53. The same measure for `Cc1nonc1CC(=O)N1CCC(n2cc(-c3ccc(F)cc3)nn2)CC1` [Compound 128, 1-(4-(4-(4-fluorophenyl)-1H-1,2,3-triazol-1-yl)piperidin-1-yl)-2-(4-methyl-1,2,5-oxadiazol-3-yl)ethan-1-one]: less than 5.00; for `Cc1nonc1CC(=O)N1CCC(c2nnc(-c3ccc(F)cc3)o2)CC1` [Compound 129, 1-(4-(5-(4-fluorophenyl)-1,3,4-oxadiazol-2-yl)piperidin-1-yl)-2-(4-methyl-1,2,5-oxadiazol-3-yl)ethan-1-one]: less than 5.00.

Regarding `Cc1nonc1CC(=O)N1CCC(c2nc(-c3ccc(F)cc3)no2)CC1` [Compound 130, 1-(4-(3-(4-fluorophenyl)-1,2,4-oxadiazol-5-yl)piperidin-1-yl)-2-(4-methyl-1,2,5-oxadiazol-3-yl)ethan-1-one], the pEC50 was 6.56. Regarding `Cc1nonc1CC(=O)N1CCC(c2noc(-c3ccc(F)cc3)n2)CC1` [Compound 132, 1-(4-(5-(4-fluorophenyl)-1,2,4-oxadiazol-3-yl)piperidin-1-yl)-2-(4-methyl-1,2,5-oxadiazol-3-yl)ethan-1-one], the pEC50 is 5.97.

Take `Cc1nonc1CC(=O)N1CCC(c2nc(-c3ccc(F)cc3)co2)CC1` [Compound 134, 1-(4-(4-(4-fluorophenyl)oxazol-2-yl)piperidin-1-yl)-2-(4-methyl-1,2,5-oxadiazol-3-yl)ethan-1-one]: the negative logarithm of the EC50 (pEC50) is 5.84. On to `Cc1nonc1CC(=O)N1CCC(c2cc(-c3ccc(F)cc3)no2)CC1` [Compound 135, 1-(4-(3-(4-fluorophenyl)isoxazol-5-yl)piperidin-1-yl)-2-(4-methyl-1,2,5-oxadiazol-3-yl)ethan-1-one], for which the pEC50 is 5.80. For `Cc1nonc1CC(=O)N1CCC(C)(c2nc(-c3ccc(F)cc3)no2)CC1` [Compound 138, 1-(4-(3-(4-fluorophenyl)-1,2,4-oxadiazol-5-yl)-4-methylpiperidin-1-yl)-2-(4-methyl-1,2,5-oxadiazol-3-yl)ethan-1-one], the pEC50 was 5.83.

Take `Cc1nonc1CC(=O)N1CCC(c2nc(-c3ccc(F)cc3)no2)(C(F)(F)F)CC1` [Compound 139, 1-(4-(3-(4-fluorophenyl)-1,2,4-oxadiazol-5-yl)-4-(trifluoromethyl)piperidin-1-yl)-2-(4-methyl-1,2,5-oxadiazol-3-yl)ethan-1-one]: the pEC50 was less than 5.00. `Cc1nonc1CC(=O)N1CCC(O)(c2nc(-c3ccc(F)cc3)no2)CC1` [Compound 140, 1-(4-(3-(4-fluorophenyl)-1,2,4-oxadiazol-5-yl)-4-hydroxypiperidin-1-yl)-2-(4-methyl-1,2,5-oxadiazol-3-yl)ethan-1-one]: the pEC50 was 6.16. Under `Cc1nonc1CC(=O)N1CCC(c2nc(-c3ccc(F)cn3)no2)CC1` [Compound 141, 1-(4-(3-(5-fluoropyridin-2-yl)-1,2,4-oxadiazol-5-yl)piperidin-1-yl)-2-(4-methyl-1,2,5-oxadiazol-3-yl)ethan-1-one] stands less than 5.00. For `Cc1nonc1CC(=O)N1CCC(c2nc(Cc3ccc(F)cc3)no2)CC1` [Compound 142, 1-(4-(3-(4-fluorobenzyl)-1,2,4-oxadiazol-5-yl)piperidin-1-yl)-2-(4-methyl-1,2,5-oxadiazol-3-yl)ethan-1-one], the pEC50 is 5.18. Take `Cc1nonc1CC(=O)N1CCC(c2nc(-c3cccc(F)c3F)no2)CC1` [Compound 143, 1-(4-(3-(2,3-difluorophenyl)-1,2,4-oxadiazol-5-yl)piperidin-1-yl)-2-(4-methyl-1,2,5-oxadiazol-3-yl)ethan-1-one]: the pEC50 was 5.92. As to `Cc1nonc1CC(=O)N1CCC(c2nc(-c3cccc(F)c3)no2)CC1` [Compound 144, 1-(4-(3-(3-fluorophenyl)-1,2,4-oxadiazol-5-yl)piperidin-1-yl)-2-(4-methyl-1,2,5-oxadiazol-3-yl)ethan-1-one], the pEC50 was 6.23.

For `Cc1nonc1CC(=O)N1CCC(n2nnc(-c3cccc(F)c3)n2)CC1` [Compound 145, 1-(4-(5-(3-fluorophenyl)-2H-tetrazol-2-yl)piperidin-1-yl)-2-(4-methyl-1,2,5-oxadiazol-3-yl)ethan-1-one], the pEC50 was 6.02.

As to `Cc1nonc1CC(=O)N1CCC(c2nc(-c3ccccc3F)no2)CC1` [Compound 146, 1-(4-(3-(2-fluorophenyl)-1,2,4-oxadiazol-5-yl)piperidin-1-yl)-2-(4-methyl-1,2,5-oxadiazol-3-yl)ethan-1-one], the pEC50 was 5.87.

For `Cc1nonc1CC(=O)N1CCC(n2nnc(-c3ccccc3F)n2)CC1` [Compound 147, 1-(4-(5-(2-fluorophenyl)-2H-tetrazol-2-yl)piperidin-1-yl)-2-(4-methyl-1,2,5-oxadiazol-3-yl)ethan-1-one], the pEC50 was 5.84. As to `Cc1nonc1CC(=O)N1CCC(c2nc(-c3ncc(F)cn3)no2)CC1` [Compound 148, 1-(4-(3-(5-fluoropyrimidin-2-yl)-1,2,4-oxadiazol-5-yl)piperidin-1-yl)-2-(4-methyl-1,2,5-oxadiazol-3-yl)ethan-1-one], the pEC50 is less than 5.00.

For `Cc1nonc1CC(=O)N1CCC(n2nnc(-c3ccc(C(N)=O)cc3)n2)CC1` [Compound 149, 4-(2-(1-(2-(4-methyl-1,2,5-oxadiazol-3-yl)acetyl)piperidin-4-yl)-2H-tetrazol-5-yl)benzamide], the pEC50 was less than 5.00.
